Key:
[1] = biological target: T1, FLT3 (Homo sapiens, UniProt P36888); test: TR-FRET kinase activity assay, FLT3; type: biochemical; conditions: ATP at Km, 60 minutes
T1 sequence (P36888 27-993): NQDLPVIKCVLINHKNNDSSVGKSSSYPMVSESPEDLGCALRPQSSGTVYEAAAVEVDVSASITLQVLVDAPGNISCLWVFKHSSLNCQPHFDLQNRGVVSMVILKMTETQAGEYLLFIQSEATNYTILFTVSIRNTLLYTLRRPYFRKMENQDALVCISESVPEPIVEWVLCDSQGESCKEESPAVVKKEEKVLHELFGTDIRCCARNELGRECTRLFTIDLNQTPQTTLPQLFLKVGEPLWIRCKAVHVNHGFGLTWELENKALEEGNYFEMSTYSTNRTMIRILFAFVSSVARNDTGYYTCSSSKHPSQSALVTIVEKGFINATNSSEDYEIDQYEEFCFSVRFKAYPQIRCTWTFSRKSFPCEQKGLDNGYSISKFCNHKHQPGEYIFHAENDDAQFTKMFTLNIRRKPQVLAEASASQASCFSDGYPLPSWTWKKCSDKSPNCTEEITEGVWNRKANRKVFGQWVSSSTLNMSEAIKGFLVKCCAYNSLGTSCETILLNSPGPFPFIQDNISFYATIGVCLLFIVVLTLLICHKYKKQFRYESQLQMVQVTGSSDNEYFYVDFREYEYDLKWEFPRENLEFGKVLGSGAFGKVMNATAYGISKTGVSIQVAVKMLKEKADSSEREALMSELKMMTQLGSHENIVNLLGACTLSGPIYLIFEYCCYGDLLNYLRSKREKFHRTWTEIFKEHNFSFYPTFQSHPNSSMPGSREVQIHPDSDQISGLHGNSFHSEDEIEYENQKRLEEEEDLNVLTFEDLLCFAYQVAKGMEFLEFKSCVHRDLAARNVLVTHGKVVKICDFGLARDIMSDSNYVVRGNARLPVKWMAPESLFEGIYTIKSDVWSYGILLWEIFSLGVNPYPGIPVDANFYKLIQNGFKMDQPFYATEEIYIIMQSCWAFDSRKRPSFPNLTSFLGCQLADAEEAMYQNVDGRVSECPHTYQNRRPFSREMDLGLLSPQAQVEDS
In short: (§1)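 Each kinase phosphorylates a fluorescently labeled peptide on tyrosine in the presence of compound, with ATP at its Km, for 60 min at RT in HEPES pH 7.5 buffer with MgCl2, EGTA, Brij 35 and DTT. Product is detected by TR-FRET with a Europium-labeled phospho-specific antibody; IC50 values follow.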

[2] = biological target: T2, MERTK (Homo sapiens, UniProt Q12866); test: TR-FRET kinase activity assay, MERTK; type: biochemical; conditions: for IC50: TR-FRET activity assay, ATP at Km, 60 minutes, read-out: Mer IC50; for Mer/Flt3 ratio (FLT3 IC50/Mer IC50): ratio calculated as FLT3 IC50/Mer IC50
T2 sequence (Q12866 21-999): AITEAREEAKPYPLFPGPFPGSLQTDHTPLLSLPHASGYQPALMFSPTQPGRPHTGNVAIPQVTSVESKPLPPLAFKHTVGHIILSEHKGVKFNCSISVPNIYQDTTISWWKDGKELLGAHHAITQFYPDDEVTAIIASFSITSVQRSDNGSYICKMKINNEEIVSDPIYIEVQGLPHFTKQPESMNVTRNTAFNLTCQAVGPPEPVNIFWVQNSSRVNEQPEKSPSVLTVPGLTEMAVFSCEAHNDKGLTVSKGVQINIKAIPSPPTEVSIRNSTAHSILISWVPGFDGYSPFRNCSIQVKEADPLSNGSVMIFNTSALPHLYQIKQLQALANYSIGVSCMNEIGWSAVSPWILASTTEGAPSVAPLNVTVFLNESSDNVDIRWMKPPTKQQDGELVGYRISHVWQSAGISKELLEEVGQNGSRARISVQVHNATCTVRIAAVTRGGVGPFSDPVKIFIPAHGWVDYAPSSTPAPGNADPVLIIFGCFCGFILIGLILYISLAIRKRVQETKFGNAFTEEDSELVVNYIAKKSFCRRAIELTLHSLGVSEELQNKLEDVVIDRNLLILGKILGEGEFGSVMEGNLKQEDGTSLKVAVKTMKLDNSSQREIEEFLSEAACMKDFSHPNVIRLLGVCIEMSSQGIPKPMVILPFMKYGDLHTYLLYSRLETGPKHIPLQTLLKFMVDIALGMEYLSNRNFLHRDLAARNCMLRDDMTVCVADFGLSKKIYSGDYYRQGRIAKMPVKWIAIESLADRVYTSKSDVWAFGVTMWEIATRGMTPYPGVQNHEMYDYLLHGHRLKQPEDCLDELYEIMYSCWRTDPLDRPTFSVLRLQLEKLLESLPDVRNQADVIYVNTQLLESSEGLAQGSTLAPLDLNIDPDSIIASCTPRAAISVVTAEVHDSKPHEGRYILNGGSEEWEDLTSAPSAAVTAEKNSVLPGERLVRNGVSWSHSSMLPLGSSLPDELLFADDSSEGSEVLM
In short: as §1

| Structure (SMILES) | IC50 [1] [nM] | IC50 [2] [nM] | Mer/Flt3 ratio (FLT3 IC50/Mer IC50) [2] |
| --- | --- | --- | --- |
| CCCC(C)Nc1ncc2c(OC3CCOCC3)ncc([C@H]3CC[C@@H](N(C)C)CC3)c2n1 (stereo partly drawn) [Compound 184] | 1000 to 10000 | ≤ 100 | ++ (a ratio of between 10 and 100) |
| CCCC(C)Nc1ncc2c(=O)n(C3CCN(C(C)C)CC3)cc([C@H]3CC[C@H](O)CC3)c2n1 (stereo partly drawn) [Compound 186] | 1000 to 10000 | ≤ 100 | +++ (a ratio of >100) |
| CCCC(C)Nc1ncc2c(N3CCC[C@@H](N(C)C)C3)ncc([C@H]3CC[C@H](O)CC3)c2n1 (stereo partly drawn) [Compound 188] | 1000 to 10000 | ≤ 100 | +++ (a ratio of >100) |
| C[C@H](Nc1ncc2c(OC3CCNCC3)ncc([C@H]3CC[C@H](O)CC3)c2n1)c1ccccc1 [Compound 189] | 1000 to 10000 | ≤ 100 | ++ (a ratio of between 10 and 100) |
| CCC[C@H](C)Nc1ncc2c(OC3CCN(C)CC3)ncc([C@H]3CC[C@H](O)CC3)c2n1 [Compound 190] | 1000 to 10000 | ≤ 100 | +++ (a ratio of >100) |
| CCCC(C)Nc1ncc2c(OCCN(C)C)ncc([C@H]3CC[C@H](O)CC3)c2n1 (stereo partly drawn) [Compound 191] | 1000 to 10000 | ≤ 100 | +++ (a ratio of >100) |
| CCCC(C)Nc1ncc2c(=O)n(C3CCN(C(=O)CN(C)C)CC3)cc([C@H]3CC[C@H](O)CC3)c2n1 (stereo partly drawn) [Compound 192] | 1000 to 10000 | ≤ 100 | +++ (a ratio of >100) |
| CCCC(C)Nc1ncc2c(=O)n(CC3CCN(C)CC3)cc([C@H]3CC[C@H](O)CC3)c2n1 (stereo partly drawn) [Compound 193] | 1000 to 10000 | ≤ 100 | +++ (a ratio of >100) |
| COC[C@H](C)Nc1ncc2c(O[C@H]3C[C@@H](O)C3(C)C)ncc([C@H]3CC[C@H](O)CC3)c2n1 [Compound 431] | 1000 to 10000 | ≤ 100 | +++ (a ratio of >100) |
| COCCN1[C@@H]2CC[C@H]1C[C@H](Oc1ncc([C@H]3CC[C@H](O)CC3)c3nc(N[C@@H](C)CC(F)(F)F)ncc13)C2 [Compound 432] | 100 to 1000 | ≤ 100 | +++ (a ratio of >100) |
| CC(=O)N1[C@@H]2CC[C@H]1C[C@H](Oc1ncc([C@H]3CC[C@H](O)CC3)c3nc(N[C@@H](C)CC(F)(F)F)ncc13)C2 [Compound 436] | 100 to 1000 | ≤ 100 | +++ (a ratio of >100) |
| C[C@@H](CC(F)(F)F)Nc1ncc2c(O[C@@H]3C[C@H]4CC[C@@H](C3)N4C3COC3)ncc([C@H]3CC[C@H](O)CC3)c2n1 [Compound 437] | 100 to 1000 | ≤ 100 | +++ (a ratio of >100) |

The next lines start with the values.

| IC50 [1] [nM] | IC50 [2] [nM] | Mer/Flt3 ratio (FLT3 IC50/Mer IC50) [2] | Structure (SMILES) |
| --- | --- | --- | --- |
| 100 to 1000 | ≤ 100 | ++ (a ratio of between 10 and 100) | O[C@H]1CC[C@H](c2cnc(OC3CCNCC3)c3cnc(NC4CCCCC4)nc32)CC1 [Compound 183] |
| 100 to 1000 | ≤ 100 | ++ (a ratio of between 10 and 100) | CCCC(C)Nc1ncc2c(OC3CCOCC3)ncc([C@H]3CC[C@H](N(C)C)CC3)c2n1 (stereo partly drawn) [Compound 185] |
| 100 to 1000 | ≤ 100 | ++ (a ratio of between 10 and 100) | CCCC(C)Nc1ncc2c(O[C@H]3C[C@H](O)C3)ncc([C@H]3CC[C@H](O)CC3)c2n1 (stereo partly drawn) [Compound 187] |
| 100 to 1000 | ≤ 100 | +++ (a ratio of >100) | C[C@@H](CC(F)(F)F)Nc1ncc2c(O[C@H]3C[C@](C)(O)C3)ncc([C@H]3CC[C@H](O)CC3)c2n1 [Compound 430] |
| 100 to 1000 | ≤ 100 | +++ (a ratio of >100) | CC(=O)N[C@H]1C[C@@H](Oc2ncc([C@H]3CC[C@H](O)CC3)c3nc(N[C@@H](C)CC(F)(F)F)ncc23)C1 [Compound 433] |
| 100 to 1000 | ≤ 100 | +++ (a ratio of >100) | CO[C@H]1C[C@@H](Oc2ncc([C@H]3CC[C@H](O)CC3)c3nc(N[C@@H](C)CC(F)(F)F)ncc23)C1 [Compound 434] |
| ≤ 100 | ≤ 100 | +++ (a ratio of >100) | COC(=O)N[C@H]1C[C@@H](Oc2ncc([C@H]3CC[C@H](O)CC3)c3nc(N[C@@H](C)CC(F)(F)F)ncc23)C1 [Compound 435] |

From patent US20200291018A1, “TAM KINASE INHIBITORS” (SYROS PHARMACEUTICALS, INC., priority 2017, published 2020)
